ChEMBL document CHEMBL1201862, “PubChem BioAssay data set” (2004)
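Growth conditions: 96-well plates. Treatment: test compound, 48 hours, 5 concentrations. Analysis: linear interpolation between bracketing concentrations; unreached endpoints set to highest concentration. GI50 = concentration required for 50% inhibition of growth.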 The source made the active and inactive calls. Rule as the data show it: active = GI50 up to about 1.1 µM and inactive = higher.

Columns and labels:
Experiment in all cases: DTP human tumour cell line panel, 48 h
HOP-62 = test system: HOP-62
SK-OV-3 = test system: SK-OV-3
SF-539 = test system: SF-539
OVCAR-5 = test system: OVCAR-5
U-251 = test system: U-251
UACC-257 = test system: UACC-257
M14 = test system: M14
OVCAR-3 = test system: OVCAR-3
NCI/ADR-RES = test system: NCI/ADR-RES
LOX IMVI = test system: LOX IMVI
SK-MEL-2 = test system: SK-MEL-2
HT-29 = test system: HT-29
SNB-75 = test system: SNB-75
HCT-116 = test system: HCT-116
ACHN = test system: ACHN
Hs-578T = test system: Hs-578T
K562 = test system: K562
OVCAR-4 = test system: OVCAR-4
HL-60 = test system: HL-60
HCC 2998 = test system: HCC 2998

Measured: GI50

CCOC(=O)[C@@]12C[C@](/C=C/OC)(O[Si](C)(C)C)[C@@]13c1cc(OC)c(OC)cc1CCN3C(=O)C2=O
inactive: HOP-62 > 100 µM | SK-OV-3 > 100 µM | SF-539 > 100 µM | OVCAR-5 > 100 µM | U-251 > 100 µM | UACC-257 > 100 µM | M14 > 100 µM | OVCAR-3 > 100 µM | NCI/ADR-RES > 100 µM | LOX IMVI > 100 µM | SK-MEL-2 > 100 µM | HT-29 > 100 µM | SNB-75 > 100 µM | HCT-116 > 100 µM | ACHN > 100 µM | Hs-578T > 100 µM | K562 > 100 µM | OVCAR-4 > 100 µM

O=S(=O)(SC1=NCCN1)c1cccc2ccccc12
inactive: HOP-62 31.3 µM | SK-OV-3 19.5 µM | SF-539 20.3 µM | OVCAR-5 22.1 µM | HL-60 > 10 µM | U-251 35.1 µM | UACC-257 28.5 µM | M14 27.6 µM | OVCAR-3 44 µM | HCC 2998 > 10 µM | NCI/ADR-RES 26.5 µM | LOX IMVI 43.8 µM | SK-MEL-2 23.7 µM | HT-29 28.7 µM | SNB-75 13.8 µM | HCT-116 30.3 µM | ACHN 27 µM | K562 24 µM | OVCAR-4 26.2 µM

COc1ccc(N/N=C/C2=CC(C)(C)C(C#N)(C#N)C(O)=C2C#N)cc1
inactive: HOP-62 43.6 µM | SF-539 26.1 µM | OVCAR-5 69.8 µM | HL-60 37.7 µM | U-251 45.1 µM | UACC-257 25 µM | M14 54.2 µM | OVCAR-3 21.6 µM | NCI/ADR-RES 37 µM | LOX IMVI 31.4 µM | SK-MEL-2 49.2 µM | HT-29 43.1 µM | SNB-75 > 100 µM | HCT-116 39 µM | ACHN 40.4 µM | Hs-578T 44.7 µM | K562 16.1 µM | OVCAR-4 50 µM

CC(NC(=O)C(N)CC(=O)O)NC(=O)C1CCC1 (configuration not stated)
inactive: HOP-62 > 100 µM | SK-OV-3 28.2 µM | SF-539 > 100 µM | OVCAR-5 > 100 µM | U-251 > 100 µM | UACC-257 > 100 µM | M14 > 100 µM | OVCAR-3 > 100 µM | NCI/ADR-RES > 100 µM | LOX IMVI > 100 µM | SK-MEL-2 > 100 µM | HT-29 > 100 µM | SNB-75 > 100 µM | HCT-116 > 100 µM | ACHN > 100 µM | Hs-578T > 100 µM | K562 > 100 µM | OVCAR-4 > 100 µM

CSc1c(C(=O)Nc2ccc(C)cc2)c(N)nn1-c1ccccc1
inactive: HOP-62 57.7 µM | SK-OV-3 64.6 µM | SF-539 35.8 µM | OVCAR-5 > 100 µM | HL-60 > 100 µM | U-251 28.3 µM | UACC-257 54 µM | M14 36.7 µM | OVCAR-3 > 100 µM | HCC 2998 58.3 µM | LOX IMVI > 100 µM | SK-MEL-2 > 100 µM | HT-29 > 100 µM | HCT-116 49.4 µM | ACHN 43.8 µM | Hs-578T 46.9 µM | K562 > 100 µM | OVCAR-4 13 µM

CCOC(=O)C(=[N+]=[N-])C(=O)CSC#N
inactive: HOP-62 > 100 µM | SK-OV-3 > 100 µM | SF-539 21.3 µM | OVCAR-5 > 100 µM | HL-60 39.3 µM | U-251 46.5 µM | UACC-257 71.4 µM | M14 23.8 µM | NCI/ADR-RES 96.4 µM | LOX IMVI 21.7 µM | SK-MEL-2 > 100 µM | HT-29 39.3 µM | HCT-116 33 µM | ACHN 22.3 µM | Hs-578T > 100 µM | OVCAR-4 40.6 µM
